Measurements reported in patent US20150376099A1, “New 3,3',5,5'-Tetraisopropyl-4,4'-Diphenol Crystal Form And Preparation Method Thereof” (XI' AN LIBANG PHARMACEUTICAL CO., LTD., priority 2013, published 2015).
Values belong to the compound of their own block, whether it stands above or below them.

Assays:
[1] = tested on: brain; conditions: cited from earlier work
[2] = tested on: GAGA receptor; conditions: cited from earlier work
[3] = tested on: NMDA receptors; conditions: cited from earlier work
[4] = tested on: GABA; conditions: cited from earlier work
[5] = tested on: slow Ca^2+ channel; conditions: cited from earlier work
[6] = tested on: kainate-induced excitotoxicity; conditions: cited from earlier work
[7] = compared with propofol; cited from earlier work
[8] = Stability of crystal forms under strong light; assay type: physicochemical; conditions: light stable box, illumination of 4500lux, 7 days
Description: (§1) As compared with the solvate, the anhydrate and hydrate are more useful as pharmaceutical crystal forms. The relative stability of the crystal form is an important indicator to be investigated in the research of drug polymorph, and the stability under high temperature, high humidity, strong light, and in water is investigated for the crystal forms I and II.
The crystal forms I and II prepared in Example 6 and 15 were respectively placed in a light stable box with illumination of 4500lux for 7 days and then characterized, and the result was shown in Table 4.

[9] = Stability of crystal forms suspended in water; assay type: physicochemical; conditions: suspended in water at 25° C. for 7 days
Experimental: as §1
The crystal forms I and II prepared in Example 6 and 15 were placed in water at 25° C. and suspended for 7 days and then characterized, and the result was shown in Table 4.

[10] = Stability of crystal forms under high humidity; assay type: physicochemical
Experimental: as §1
The crystal forms I and II prepared in Example 6 and 15 were respectively placed in a constant temperature and humidity chamber at 80° C. and 75% RH for 7 days and then characterized, and the result was shown in Table 4.

[11] = Stability of crystal forms under high temperature; assay type: physicochemical; conditions: ventilated oven at 80° C. for 7 days, then characterized
Experimental: as §1
The crystal forms I and II prepared in Example 6 and 15 were respectively placed in a ventilated oven at 80° C. for 7 days and then characterized, and the result was shown in Table 4.

Structure (SMILES): CC(C)c1cc(-c2cc(C(C)C)c(O)c(C(C)C)c2)cc(C(C)C)c1O [3,3′,5,5′-tetraisopropyl-4,4′-diphenol]
Protective effect of brain [1]: strong protective effect of brain
Affinity for the GAGA receptor [2]: strong affinity
Antagonism of NMDA receptors [3]: could antagonize NMDA receptors
GABA agonistic effect [4]: GABA agonistic effect
Ca^2+ influx in the slow Ca^2+ channel [5]: regulate Ca^2+ influx
Effect on kainate-induced excitotoxicity [6]: protective effect
Antioxidant effect [7]: significantly stronger than propofol

Crystal form found after Light [8]: good stability
Structure (SMILES): CC(C)c1cc(-c2cc(C(C)C)c(O)c(C(C)C)c2)cc(C(C)C)c1O [crystal form I, 3,3′,5,5′-tetraisopropyl-4,4′-diphenol]

Crystal form found after Water ([9]; listed as II): I (few), II
Crystal form found after High humidity (40° C., 75% RH) ([10]; constant temperature and humidity chamber, 40° C., 75% RH, 7 days): I (few), II
Crystal form found after High temperature (80° C.) ([11]; listed as II): I, II
Structure (SMILES): CC(C)c1cc(-c2cc(C(C)C)c(O)c(C(C)C)c2)cc(C(C)C)c1O [crystal form II, 3,3′,5,5′-tetraisopropyl-4,4′-diphenol]
Crystal form found after Water [9]: tendency of converting to the crystal form I
Stability under high humidity conditions ([10]; 80° C. and 75% RH for 7 days (as printed in text)): tendency of converting to the crystal form I
Crystal form found after High temperature (80° C.) [11]: tendency of converting to the crystal form I
